Measured values reported in PubChem BioAssay AID449732 (Southern Research Specialized Biocontainment Screening …, 2010).

Test system: RSV titer reduction in cells, log virus titer
Experiment: antiviral activity against RSV, titer decrease, cell-based, titer reduction, selected compounds (AID 449732)
Settings: active compounds read high

CCCC(c1nnnn1CC(=O)OCC)N(Cc1cc2c(C)cc(C)cc2[nH]c1=O)C1CCCC1 (stereo unspecified)
max log titer decrease: 9.13

CCOC(=O)C1=C(NC(=S)NC(=O)c2ccccc2)c2ccccc2CC1C(C)C (stereo unspecified)
max log titer decrease: 9.13

COc1ccc(C(c2c(NC(=O)c3ccco3)sc(C)c2C)N2CCOCC2)cc1OC (stereo unspecified)
max log titer decrease: 8.58

CCOC(=O)c1ccc2[nH]c3c(c2c1)CN(C)CC3
max log titer decrease: 9.13

COc1ccccc1CNC(=O)C1CCN(S(=O)(=O)c2cccc3nonc23)CC1
max log titer decrease: 8.58

O=C(NC(=S)Nc1ccccc1C(=O)O)c1ccc(-c2ccc(Br)cc2)o1
max log titer decrease: 8.03

O=C(CCNC(=O)c1ccc(Br)cc1)NC1CCCc2ccccc21 (stereo unspecified)
max log titer decrease: 8.6

O=C(O)C1CC=CCC1C(=O)Nc1ccc(S(=O)(=O)N2CCCc3ccccc32)cc1 (stereo unspecified)
max log titer decrease: 8.58

COc1cccc(CNC(=O)c2cc3oc4ccccc4c3n2C)c1OC
max log titer decrease: 8.58

Cc1nc2ccccc2nc1Nc1cccc(Cl)c1
max log titer decrease: 8.03

Cc1ccc(CSCC(=O)Nc2ccccc2C(=O)O)cc1
max log titer decrease: 8.03

C#CCn1c(S(=O)(=O)Cc2ccc(F)cc2)nc(-c2ccccc2)c1-c1ccccc1
max log titer decrease: 3.37

c1ccc(-c2nn3c(Cn4cnc5ccccc54)nnc3s2)cc1
max log titer decrease: 8.58

O=C(O)c1cccnc1Nc1ccc(Cl)cc1
max log titer decrease: 9.13

CCOc1ccc(CNC(=O)c2cc3oc4ccccc4c3n2C)cc1
max log titer decrease: 8.58

COc1ccc(C(=O)Nc2nc3c(s2)CCCC3)cc1S(=O)(=O)N1CCCc2ccccc21
max log titer decrease: 8.6

CC(C)(C)C(=O)Nc1sc(-c2ccccc2)cc1C(=O)O
max log titer decrease: 5.66

CCOc1ccc2nc(NC(=O)C(CCSC)NS(=O)(=O)c3cccs3)sc2c1 (stereo unspecified)
max log titer decrease: 8.58

CC1Cc2ccccc2N1S(=O)(=O)c1cccc(C(=O)N2CCN(c3ncccn3)CC2)c1 (stereo unspecified)
max log titer decrease: 8.6

O=S(=O)(c1cccc(-c2csc(-c3ccccc3)n2)c1)N1CCOCC1
max log titer decrease: 8.58

Cn1c(C(=O)NCc2ccccc2)cc2oc3ccccc3c21
max log titer decrease: 8.58

CCOC(=O)c1ccc(NC(=S)N2CCSC2c2ccc(Br)cc2)cc1 (stereo unspecified)
max log titer decrease: 8.03

O=C(Nc1ccc(N2CCCCC2)c(Cl)c1)c1cccnc1
max log titer decrease: 9.13

Cc1ccc(OCCn2c(C3CC(=O)N(Cc4ccccc4)C3)nc3ccccc32)cc1 (stereo unspecified)
max log titer decrease: 8.6

CSc1nnc(Cn2c(=O)sc3ccccc32)n1-c1cccc(Cl)c1
max log titer decrease: 5.47

Cc1sc2nc(C3CC3)nc(SCC(=O)N3c4ccccc4CC3C)c2c1C (stereo unspecified)
max log titer decrease: 9.13

COc1ccccc1NCC(=O)Nc1cc(S(=O)(=O)N2CCOCC2)ccc1N1CCOCC1
max log titer decrease: 4.6

Cc1ccc2c(c1)cc(C(=O)NCc1ccccc1)n2C
max log titer decrease: 8.03

COC(=O)c1ccc(NC2c3ncccc3C(=O)N2Cc2cccs2)cc1 (stereo unspecified)
max log titer decrease: 5.08

CCOC(=O)c1c(-c2cccc(C)c2)csc1NC(=O)c1c(-c2ccccc2)noc1C
max log titer decrease: 8.03

COCCCNC(=O)c1ccc(Cn2c(=O)c3ccccc3n(Cc3ccc(C)cc3)c2=O)cc1
max log titer decrease: 8.58

COc1ccc(N(CC(=O)NC2CCCCC2)C(=O)c2ccc(C)s2)c(OC)c1
max log titer decrease: 5.13

CSc1ncccc1C(=O)Nc1nc(C(C)(C)C)cs1
max log titer decrease: 5.6

CCc1nc(SCC(=O)N2c3ccccc3CC2C)c2c(C)c(C)sc2n1 (stereo unspecified)
max log titer decrease: 9.13

O=C(c1cc2nc(-c3ccccc3)cc(-c3ccccc3)n2n1)N1CCC2(CC1)OCCO2
max log titer decrease: 8.03

O=[N+]([O-])c1ccccc1S(=O)(=O)Nc1cccc(-c2ccc(N3CCCC3)nn2)c1
max log titer decrease: 9.13

Cc1ccc(-c2nc3cccnc3s2)cc1NS(=O)(=O)c1cccs1
max log titer decrease: 9.13

c1csc(-c2nn3c(Cn4cnc5ccccc54)nnc3s2)c1
max log titer decrease: 5.14

Cc1ccc(NC(=O)C2CCCN2S(=O)(=O)c2cccc3cccnc23)c(C)c1 (stereo unspecified)
max log titer decrease: 8.58

c1ccc(N2CCN(Cc3nc4ccccc4[nH]3)CC2)nc1
max log titer decrease: 4.6

Cc1cccc(NC(=O)CSc2nc3ccccc3nc2N2CCCCC2)c1
max log titer decrease: 9.13

O=C(CCNC(=O)c1ccc(Cl)cc1)NC1CCCc2ccccc21 (stereo unspecified)
max log titer decrease: 8.6

CCN(c1ccccc1)S(=O)(=O)c1ccc(Cl)c(NC(=O)CSc2n[nH]c(N)n2)c1
max log titer decrease: 8.6

O=C(NCc1ccco1)c1ccc(Cn2c(=O)c3ccccc3n(Cc3ccc(Cl)cc3)c2=O)cc1
max log titer decrease: 8.58

Cc1cccc(-n2c(SCC(=O)Nc3ncc(Cl)cc3Cl)nc3ccccc32)c1
max log titer decrease: 8.6

COC(=O)C1=C(C)N(Cc2ccccc2)C(=O)NC1c1ccccc1 (stereo unspecified)
max log titer decrease: 9.13

O=C(CCCOc1ccc(Cl)cc1Cl)Nc1ccccc1C(=O)O
max log titer decrease: 8.03

CN(C)C(=O)COC(=O)c1ccccc1Nc1ccc(SC(F)F)cc1
max log titer decrease: 8.6

COc1cccc(C(=O)N(Cc2nc(-c3cccc(C)c3)no2)C(C)C)c1OC
max log titer decrease: 8.03

Cc1ccc(-n2c(SCC(=O)Nc3ncc(Cl)cc3Cl)nc3ccccc32)cc1
max log titer decrease: 8.6

Cc1c(NC(=O)COC(=O)c2cc(-c3ccc(-c4ccccc4)cc3)nc3ccccc23)c(=O)n(-c2ccccc2)n1C
max log titer decrease: 8.6
